Experimental data from patent US20100330098A1, “METHODS TO REGULATE GLUCOSE METABOLISM” (priority 2009, published 2010).
Entries after “also recorded” stand apart in the source; their conditions may differ.

Legend:
Assay type in all cases: in vivo, mouse
C57Bl/6 mice = assay: Euglycemic, hyperinsulinemic clamp analyses; conditions: adult male C57Bl/6 mice
Source text: Adult male C57Bl/6 mice (n=8 or 9) were used. * P=0.01 ** P=0.0001 for control vs. treatment.

db/db mice [1] = assay: Plasma insulin levels by ELISA in db/db mice; conditions: VEGF Trap vs hFc, ELISA (FIG. 31)
Experimental: FIG. 31 is a graph showing plasma insulin levels as determined by ELISA. * P=0.003 between VEGF Trap- and hFc-treated db/db mice. The hyperinsulinemia of db/db mice is corrected by VEGF Trap treatment.
FIGS. 28-29 illustrate that the chronic administration of VEGF Trap protein improves hepatic glucose tolerance in db/db mice. 10 week-old female db/db and db/+ mice (n=5) were treated with twice-weekly subcutaneous injections of 25 mg/kg VEGF Trap or control hFc.

db/db mice [2] = assay: Ad libidum (fed) and fasting blood glucose levels in db/db mice; conditions: long-term twice-weekly s.c. 25 mg/kg VEGF Trap vs hFc (FIG. 28)
Source text: FIG. 25 is a graph showing ad libidum and fasting blood glucose levels in mice. * P≦0.05 in the indicated treatment groups compared to control.
FIG. 28 is a graph showing ad libidum blood glucose levels. * P<0.04 between VEGF Trap- and hFc-treated db/db mice at the indicated time points.
FIG. 33 is a graph showing the fed and fasting blood glucose levels in db/db mice.
Db/db model. Db/db or wild-type mice received single intravenous injection of adenoviruses encoding Ad Flt (soluble VEGF receptor), Ad Fc (control antibody Fc fragment), VEGF Trap or control human Fc fragment, with or without adenovirus encoding shRNA against HIF-2α, or scrambled control shRNA. Adenovirus gives preferential and quantitative hepatocyte infection, a robust maneuver for achieving hepatic gene knockdown (Canettieri et al., (2005) Cell Metab. 2: 331; Taniguchi et al., (2005) J. Clin. Invest. 115: 718).
(§1) FIGS. 25-27 illustrate that VEGF inhibition and HIF-2α activation reverse the diabetic phenotype of db/db mice. The data of […] are from 10 week-old female db/db mice injected with 5×10^8 pfu of the indicated viruses.
FIGS. 28-29 illustrate that the chronic administration of VEGF Trap protein improves hepatic glucose tolerance in db/db mice. 10 week-old female db/db and db/+ mice (n=5) were treated with twice-weekly subcutaneous injections of 25 mg/kg VEGF Trap or control hFc. […]

IRS-2 = assay: Western blot of liver extracts: hepatic IRS-2 protein; conditions: livers from VEGF Trap-treated mice (FIG. 8)
Source text: (§2) FIG. 4 is a Western blot indicating increased hepatic insulin signaling following single intravenous injections of 5×10^8 pfu Ad Flt1 (VEGF inhibition) or Ad Fc (negative control) into adult C57Bl/6 mice. […] IR-β: b-subunit of the IR. * P≦0.05; n=5 animals each.
(§3) FIG. 8 is a digital image of a Western blot analysis.

HIF-2α = assay: Immunoblots of hepatic HIF-2α; conditions: C57Bl/6 mice, 14 days after single injection of 5×10^8 pfu Ad Flt1 vs Ad Fc (FIG. 11)
C57Bl/6 and SCID mice = assay: Ad libidum and fasting blood glucose levels in wild-type mice; conditions: 6 weeks of twice-weekly s.c. VEGF Trap vs human Fc (FIG. 6)
G6PC and PEPCK = assay: Quantitative PCR of hepatic gluconeogenic gene expression; conditions: SCID mice, six weeks twice-weekly s.c. 25 mg/kg VEGF Trap vs human Fc (FIG. 9)
[3] = test system: insulin receptor (IR) signaling intermediates Akt, GSK-3β, FOXO1; assay: Western blot of liver extracts: phosphorylation of insulin receptor signaling intermediates; conditions: livers from VEGF Trap-treated mice (FIG. 8)
Source text: as §2, §3

db/db mice [4] = assay: Glucose tolerance test in db/db mice; conditions: twice-weekly s.c. 25 mg/kg VEGF Trap vs hFc, 0.5 g/kg glucose i.p. (FIGS. 29-30)
Experimental: FIG. 26 is a graph showing the results of glucose tolerance tests. 7 d after adenoviral infection, mice were given 0.5 g/kg glucose intraperitoneally and blood glucose levels were measured.
FIG. 29 is a graph showing the results of a glucose tolerance test in db/db mice. Mice were given 0.5 g/kg glucose intraperitoneally and blood glucose levels were measured. * P<0.03 between treatment groups at the indicated time points. Values are mean±s.e.m.
FIG. 30 is a graph showing the results of a glucose tolerance test in db/db mice. Mice were given 0.5 g/kg glucose intraperitoneally and blood glucose levels were measured. * P<0.03 between treatment groups at the indicated time points. Values are mean±s.e.m.
FIG. 32 is a graph showing the results of a glucose tolerance test in db/db mice. Mice were given 0.5 g/kg glucose intraperitoneally and blood glucose levels were measured. * P<0.02 between treatment groups at the indicated time points. Values are mean±s.e.m.
as §1
FIGS. 28-29 illustrate that the chronic administration of VEGF Trap protein improves hepatic glucose tolerance in db/db mice. […]

VEGF Trap: Ig domain 2 from VEGFR1 fused to Ig domain 3 from VEGFR2, fused to the Fc domain of IgG1 (Regeneron)
glucose infusion rate to maintain euglycemia (C57Bl/6 mice; hyperinsulinemic euglycemic clamp (FIG. 7A)): higher glucose infusion rate | insulin suppression of hepatic glucose production (insulin action in the liver) (C57Bl/6 mice; hyperinsulinemic euglycemic clamp (FIG. 7B)): increased insulin action in the liver | plasma insulin levels (hyperinsulinemia) (db/db mice [1]): sustained correction; also recorded: corrected | ad libidum blood glucose levels (hyperglycemia) (db/db mice [2]): sustained correction | liver IRS-2 levels (IRS-2): higher levels | hepatic HIF-2α stabilization (HIF-2α): increased stabilization | blood glucose levels (C57Bl/6 and SCID mice): lowered | hepatic expression of G6PC and PEPCK (G6PC and PEPCK): significantly reduced | liver phospho-AKT levels [3]: higher levels | glucose tolerance (GTT) (db/db mice [4]): improved glucose tolerance; also recorded: improves
